Source: patent publication US11331368B2, “Angiotensin receptor agonists and uses thereof” (Monash University, priority 2017, dated 2022)

Key:
human AT1R = molecular target: T1, human AT1R (Homo sapiens, UniProt P30556); assay: Competition radioligand binding (125I-Sar1-Ile8-AngII) in AT1R-transfected HEK-293 cells
T1 construct: expressed in transfected cells
T1 sequence (P30556 1-359): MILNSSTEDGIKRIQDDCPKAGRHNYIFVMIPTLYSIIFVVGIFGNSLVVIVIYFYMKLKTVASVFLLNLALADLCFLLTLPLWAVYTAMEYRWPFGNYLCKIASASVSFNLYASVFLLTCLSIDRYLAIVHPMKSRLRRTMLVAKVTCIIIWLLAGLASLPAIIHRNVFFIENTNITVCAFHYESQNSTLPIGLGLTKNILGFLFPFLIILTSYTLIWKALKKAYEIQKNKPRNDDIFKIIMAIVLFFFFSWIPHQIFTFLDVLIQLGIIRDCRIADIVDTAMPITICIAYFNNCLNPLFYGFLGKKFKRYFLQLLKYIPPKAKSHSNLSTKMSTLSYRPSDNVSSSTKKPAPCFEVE
Method: This will lead to the generation of IC50 values that determine the relative ability of test compounds to interact with both Angiotensin receptors.
Cells were grown to approximately 80% confluence before being re-plated into 48 well plates at 1×10^5 cells/well and grown for 48 hours at 37° C. for a whole cell competition binding assay. [125I]-Sar1Ile8Ang II at 50,000 cpm, incubated for 45 minutes at 37° C., in the absence or presence of unlabeled ligands, prepared in binding buffer (DMEM, 0.1% BSA), were used in the competition assays at concentrations ranging from 1 μM to 10 μM. For each experiment, each ligand concentration was tested in duplicate or triplicate, and each experiment was repeated at least 3 separate times. […] The ability of each ligand to inhibit specific binding of [125I]-Sar1Ile8Ang II was measured on a gamma counter with all counts corrected for NSB.

human AT2R = molecular target: T2, human AT2R (Homo sapiens, UniProt P50052); assay: Competition radioligand binding (125I-Sar1-Ile8-AngII) in AT2R-transfected HEK-293 cells; settings: for Fold AT2R selectivity: AT2R over AT1R, Table 3; for binding at AT2R (displacement of 125I-Sar1-Ile8-AngII), in words: transfected HEK-293 cells
T2 construct: expressed in transfected cells
T2 sequence (P50052 1-363): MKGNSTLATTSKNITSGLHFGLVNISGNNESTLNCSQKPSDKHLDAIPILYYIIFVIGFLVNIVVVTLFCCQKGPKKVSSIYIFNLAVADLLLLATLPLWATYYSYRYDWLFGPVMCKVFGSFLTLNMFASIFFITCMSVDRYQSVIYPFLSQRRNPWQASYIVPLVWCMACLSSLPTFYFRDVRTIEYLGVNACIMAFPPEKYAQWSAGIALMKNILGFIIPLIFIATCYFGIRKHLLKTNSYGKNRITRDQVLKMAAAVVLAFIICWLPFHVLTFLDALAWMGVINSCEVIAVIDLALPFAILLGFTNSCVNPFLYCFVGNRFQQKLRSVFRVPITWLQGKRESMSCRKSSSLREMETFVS

[1] = test system: male FVB/N mice on high salt diet, heart; assay: High salt (5%) diet intervention model, heart; type: in vivo, mouse; settings: for cardiac fibrosis by hydroxyproline analysis (LV collagen content) / cardiac oxidative stress (DHE staining) / myofibroblast differentiation in heart (α-SMA): 75 pmol/kg/min s.c.; for cardiac fibrosis by hydroxyproline analysis (LV collagen content) / cardiac oxidative stress (DHE staining) / myofibroblast differentiation in heart (α-SMA) / expression of P-IκBα (marker for NFκB activation) in heart: weeks 5-8; for expression of P-IκBα (marker for NFκB activation) in heart: peptides 75 pmol/kg/min s.c., captopril 3 mg/kg/day; for expression of P-IκBα (marker for NFκB activation) in heart / cardiac fibrosis (picrosirius red): Cand 2 mg/kg/day; for cardiac fibrosis (picrosirius red): weeks 5-8 of high salt diet, peptides 75 pmol/kg/min s.c. mini-pump, captopril 3 mg/kg/day in drinking water
Method: (§1) C) In the intervention (or reversal) model, male FVB/N mice were treated with selective AT2Rs agonists after the establishment of cardiovascular disease using a high salt diet, in order to reverse cardiovascular pathologies. In some experiments, the ACE inhibitor captopril (dose) or the ARB candesartan cilexetil (dose) were given for 4 weeks in drinking water. Organs examined included heart, kidney and liver and these were compared to either untreated mice or high salt-fed mice that were treated with saline.
A high-salt diet (5% salt) model is a clinically relevant and disease-reversal model which can replicate the high salt intake by humans which is currently a growing problem in the developed countries. High salt intake induces changes in the cardiovascular system and induces remodelling and fibrosis in the heart, kidney and liver.
(§2) Mice were placed on either a normal rodent diet (0.35% NaCl) which acted as control or a high salt diet (5% sodium in food chow) for 8 weeks. After 4 weeks, mice were also treated subcutaneously (via osmotic mini-pump) with either saline or an AT2R agonist (75 pmol/kg/min subcutaneously) for 4 weeks. Mice continued to be fed a high salt diet whilst receiving these treatments.
All mice which underwent surgery were anaesthetized with Isoflurane (Isorrane) (5% induction and 2.5% maintenance) and an incision made in the midscapular region through which osmotic minipumps (Alzet model 2004, Alza Corp) were inserted for subcutaneous drug administration. The incision area was sutured with 6/0 DY silk (Dynek Pty Ltd) and antibiotic powder applied (Cicatrin, Pfizer) followed by intramuscular injection of the analgesic Cartrophen (0.1 ml of a 1.5 mg/ml stock solution; Biopharm Australia). Systolic blood pressure (SBP) was measured using non-invasive tail-cuff plethysmography apparatus (MC4000 Blood Pressure Analysis System, Hatteras Instrument Inc) before drug treatment (week 0), and then fortnightly. At the end of the 8 week treatment period mice were weighed before being killed by overdose of isoflurane inhalation and cervical dislocation.
(§3) To measure collagen deposition, frozen sections of heart, kidney or aorta (all 5 μm thickness) were air dried for 10 minutes and were brought through 3 times xylene (2 minutes each), and 3 times absolute alcohol washes before being rinsed in tap H2O for 30 seconds. Staining with an optimal concentration of picrosirius red (in this instance 0.05% picrosirius red diluted in saturated picric acid) was performed and left for an hour. Sections were then rinsed in water and differentiated in 0.01M HCl for 2 minutes, followed by dehydration via 3 times absolute alcohol washes. Then, slides were brought through 3 times xylene washes before being cover slipped according to standard histological techniques using DPX as the mounting medium. Images were taken under ×20 magnification, using bright field (Olympus, BX51) and circularized polarized light microscopy (DM IRB, Leica) while percentage of positive interstitial collagen staining per total field of view was quantified using ImageJ 1.46 software (Java, NIH), and averaged out from a total of eight views as the final percentage collagen content in a particular animal.
Immunostaining was performed on 5 μm thick transverse frozen heart sections. These sections were air dried and fixed in ice-cold acetone for approximately 15 minutes before washing with 0.01M PBS buffer (3×10 minutes). Sections were then incubated with 10% goat serum in 0.01M PBS for 30 minutes to reduce non-specific binding. If the primary antibody is raised in goat, this pre-blocked medium is substituted with 5% BSA in PBS and Triton-X. Next, blocking buffers were removed and the primary antibody to respective markers were applied overnight at room temperature based on the following dilution and origin of the antibodies: α-SMA (1:500, Abcam), Vimentin (1:500, Santa Cruz), P-IκBα (1:200, Cell Signalling), F4/80 macrophage (1:100, Serotec). […]

[2] = test system: male FVB/N mice on high salt diet, kidney; assay: High salt (5%) diet intervention model, kidney; type: in vivo, mouse; settings: 75 pmol/kg/min s.c., weeks 5-8
Method: as §1, §2, §3
Kidney sections used either picrosirius red staining as described above or using Mason's Trichrome staining as described below.
Formalin fixed, paraffin embedded kidneys were sectioned at thickness of 4 μm and were stained with Masson's trichrome according to standard procedures for analysis of kidney fibrosis. […] Sections were re-fixed in Bouin's solution for 1 hour at 56° C. to improve staining quality then rinsed in running tap water for 5-10 minutes to remove yellow colour. Following this, sections were stained in Weigert's iron hematoxylin working solution for 10 minutes. Rinsed in running warm tap water for 10 minutes. Washed in distilled water. Stained in Biebrich scarlet-acid fuchsin solution for 10-15 minutes. Washed in distilled water. Differentiated in phosphomolybdic-phosphotungstic acid solution for 10-15 minutes or until collagen was no longer red. Sections were transferred directly (without rinse) to aniline blue solution and stained for 5-10 minutes. Rinsed briefly in distilled water and differentiated in 1% acetic acid solution for 2-5 minutes. Washed in distilled water. […] Mounted with DPX mounting medium.
Quantification of kidney fibrosis was performed using images captured with the Aperio scanner (Monash Histology Platform, Monash University), with ×5 magnification. Each kidney section had 5 different fields of view photographed at this magnification. Percentage of tubulointerstitial collagen was analysed and quantified using ImageJ 1.48 software (Java, NIH), and the percentage from 5 random fields of view were averaged for final percentage of collagen for that particular animal. All analysis of collagen expression was conducted in a blinded fashion.

[3] = test system: male FVB/N mice on high salt diet, kidney; assay: High salt (5%) diet intervention model, kidney; type: in vivo, mouse; settings: 75 pmol/kg/min s.c., weeks 5-8; remark: listed apart in the source

Row | Substance | binding at AT1R (displacement of 125I-Sar1-Ile8-AngII), in words (human AT1R) | Fold AT2R selectivity (human AT2R) | AT2R/AT1R selectivity ratio (human AT2R; approximate or conservatively estimated, listed as β-Pro^7-Trp^8-Ang III) | binding at AT2R (displacement of 125I-Sar1-Ile8-AngII), in words (human AT2R) | cardiac fibrosis by hydroxyproline analysis (LV collagen content) [1] | cardiac oxidative stress (DHE staining) [1] | myofibroblast differentiation in heart (α-SMA) [1] | expression of P-IκBα (marker for NFκB activation) in heart [1] | cardiac fibrosis (picrosirius red) [1] | kidney glomerular fibrosis (picrosirius red) [2] | kidney tubulointerstitial fibrosis (picrosirius red) [2] | macrophage infiltration in kidney (F4/80) [3] | renal fibrosis by hydroxyproline analysis [3] | renal inflammation (phospho-IκBα expression) [3]
1 | Arg-Val-Tyr-Ile-His-β-Pro-Trp [βPro-Trβ-8-Ang III] | bind poorly | >400,000 fold | > 400,000 fold | high affinity | reversed the pro-fibrotic effects of high salt in the heart | reversed the oxidative stress effects of high salt in the heart | reversed myofibroblast differentiation | reversed | reversed cardiac fibrosis | reversed the glomerular fibrosis caused by high salt in the kidney | reversed the tubulointerstitial fibrosis caused by high salt in the kidney | reversed high salt-induced macrophage infiltration in the kidney | reversed the pro-fibrotic effects of high salt in the kidney | reversed high salt-induced renal inflammation in the kidney
2 | D-Arg-Val-Tyr-Ile-His-β-Pro-Trp [D-Arg-βPro-Trp-8-Ang III] | bind poorly | >18,000 fold | – | high affinity | reversed the pro-fibrotic effects of high salt in the heart | reversed the oxidative stress effects of high salt in the heart | reversed myofibroblast differentiation | reversed | reversed cardiac fibrosis | reversed the glomerular fibrosis caused by high salt in the kidney | reversed the tubulointerstitial fibrosis caused by high salt in the kidney | reversed high salt-induced macrophage infiltration in the kidney | reversed the pro-fibrotic effects of high salt in the kidney | reversed high salt-induced renal inflammation in the kidney
